Legend:
[1] = target: T1, Polyunsaturated fatty acid 5-lipoxygenase (Homo sapiens, UniProt P09917); test: Inhibition of 5-LOX (unknown origin)
T1 sequence (P09917 whole entry): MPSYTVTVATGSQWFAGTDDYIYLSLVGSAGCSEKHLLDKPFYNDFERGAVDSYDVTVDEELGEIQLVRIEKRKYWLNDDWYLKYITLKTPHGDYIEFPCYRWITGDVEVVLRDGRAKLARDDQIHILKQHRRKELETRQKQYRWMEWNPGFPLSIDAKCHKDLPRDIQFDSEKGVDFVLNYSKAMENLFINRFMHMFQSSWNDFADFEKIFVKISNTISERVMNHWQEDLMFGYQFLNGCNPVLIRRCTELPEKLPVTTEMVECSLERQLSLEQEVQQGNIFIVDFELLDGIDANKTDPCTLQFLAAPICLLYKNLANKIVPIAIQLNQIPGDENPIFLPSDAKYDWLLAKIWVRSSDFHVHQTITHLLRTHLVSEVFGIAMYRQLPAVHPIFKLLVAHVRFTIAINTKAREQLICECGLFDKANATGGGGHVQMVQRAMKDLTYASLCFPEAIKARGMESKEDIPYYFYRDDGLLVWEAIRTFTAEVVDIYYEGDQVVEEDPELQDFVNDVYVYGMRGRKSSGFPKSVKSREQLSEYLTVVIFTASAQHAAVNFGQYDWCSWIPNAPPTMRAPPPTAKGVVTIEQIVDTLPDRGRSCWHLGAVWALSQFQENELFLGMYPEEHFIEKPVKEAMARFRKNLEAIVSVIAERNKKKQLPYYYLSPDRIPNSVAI

[2] = target: T2, Prostaglandin G/H synthase 2 (Homo sapiens, UniProt P35354); test: Inhibition of human COX-2 using arachidonic acid as substrate incubated for 30 secs by ELISA
T2 sequence (P35354 whole entry): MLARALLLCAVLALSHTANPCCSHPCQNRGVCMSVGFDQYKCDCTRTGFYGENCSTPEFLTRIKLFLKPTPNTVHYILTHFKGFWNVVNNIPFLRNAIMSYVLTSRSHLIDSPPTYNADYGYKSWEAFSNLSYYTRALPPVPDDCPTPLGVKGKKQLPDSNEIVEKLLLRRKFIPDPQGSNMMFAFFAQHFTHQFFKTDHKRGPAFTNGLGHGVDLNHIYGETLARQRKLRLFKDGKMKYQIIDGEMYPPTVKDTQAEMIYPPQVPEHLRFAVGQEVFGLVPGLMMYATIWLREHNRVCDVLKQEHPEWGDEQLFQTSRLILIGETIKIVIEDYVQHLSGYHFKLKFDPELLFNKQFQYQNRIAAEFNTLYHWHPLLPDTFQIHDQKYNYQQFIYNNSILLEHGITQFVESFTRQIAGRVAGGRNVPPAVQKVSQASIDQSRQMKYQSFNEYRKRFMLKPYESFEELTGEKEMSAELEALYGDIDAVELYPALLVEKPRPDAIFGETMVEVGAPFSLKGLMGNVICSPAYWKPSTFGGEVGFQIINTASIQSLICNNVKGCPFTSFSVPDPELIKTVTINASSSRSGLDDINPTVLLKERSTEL

[3] = target: COX-1/COX-2 (Homo sapiens) (UniProt P35354+P23219); test: Selectivity index, ratio of IC50 for inhibition of COX-1 (unknown origin) to IC50 for inhibition of COX-2 (unknown origin); type: protein assay
[4] = target: T2, Prostaglandin G/H synthase 2; test: Inhibition of COX-2 (unknown origin)
[5] = target: T2, Prostaglandin G/H synthase 2; test: Inhibition of human COX-2 using arachidonic acid as substrate preincubated for 10 mins followed by substrate addition and measured after 30 secs by ELISA
[6] = Inhibition of soybean 5-LOX using linoleic acid as substrate preincubated for 5 mins followed by substrate addition and measured after 3 mins; parameters: species or system Glycine max
Dihydrofolate reductase = target: T3, Dihydrofolate reductase (Homo sapiens, UniProt P00374); test: Inhibition of DHFR (unknown origin)
T3 sequence (P00374 whole entry): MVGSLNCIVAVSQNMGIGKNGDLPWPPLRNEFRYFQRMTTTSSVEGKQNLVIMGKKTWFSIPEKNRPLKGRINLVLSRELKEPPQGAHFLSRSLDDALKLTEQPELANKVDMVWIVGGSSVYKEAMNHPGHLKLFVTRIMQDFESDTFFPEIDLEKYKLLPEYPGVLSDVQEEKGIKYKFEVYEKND

Alpha-glucosidase = Alpha-glucosidase (Saccharomyces cerevisiae S288c, UniProt P53341+P38158+P07265); test: Inhibition of Saccharomyces cerevisiae alpha-glucosidase using PNPG as substrate preincubated for 10 mins followed by substrate addition by spectrophotometric method; type: protein assay
[7] = target: T2, Prostaglandin G/H synthase 2; test: Inhibition of human recombinant COX-2 using arachidonic acid as substrate preincubated for 5 mins followed by substrate addition and measured after 10 mins by microplate reader analysis
[8] = target: T4, Prostaglandin G/H synthase 2 (Homo sapiens) (UniProt P35354); conditions: dose 2-10 nM, time 1.0 min
T4 sequence (whole entry): T2 sequence (P35354 whole entry)

COc1cc(/C=c2\c(=O)[nH]n3c(=O)c4ccccc4nc23)cc(OC)c1OC
IC50 [1]: 600 nM

CS(=O)(=O)c1ccc(-c2nn(-c3ccc(S(N)(=O)=O)cc3)cc2C=O)cc1
IC50 [2]: 17 nM
Ratio IC50 [3]: 0.008

C/C(=N\NC(=O)c1nnn(-c2ccc(S(N)(=O)=O)cc2)c1C)c1cc2ccccc2o1
Ratio IC50 [3]: 1.95
IC50 [4]: 2610 nM

O=c1[nH]n2c(=O)c3ccccc3nc2/c1=C/c1ccc(Br)cc1
IC50 [5]: 47 nM
IC50 [1]: 600 nM

COc1ccc2cc([C@H](C)C(=O)N[C@@H](C)C(=O)N/C(=C\c3ccccc3)C(=O)O)ccc2c1
IC50 [6]: 48900 nM

COc1ccc2cc([C@H](C)C(=O)O)ccc2c1 [NAPROXEN]
IC50 [6]: 22000 nM

O=c1[nH]n2c(=O)c3ccccc3nc2/c1=C/c1ccc(Cl)cc1
IC50 [5]: 47 nM
IC50 [1]: 600 nM

Cc1c(C(=O)NNC(=S)Nc2ccccc2)nnn1-c1ccc(S(N)(=O)=O)cc1
Ratio IC50 [3]: 1.95
IC50 [4]: 2610 nM

CCC(C)C(=O)[C@H]1C(=O)[C@@]2(CC=C(C)C)C[C@H](C[C@H]3[C@@H](C[C@H](C(C)(C)O)C3(C)C)C2=O)C1(C)C (stereo partly specified)
IC50 [4]: 8320 nM

COc1cc(/C=C2\N=C(c3ccccc3)N(c3ccc(C(=O)O)cc3)C2=O)ccc1OC(=O)c1ccccc1
IC50 (Dihydrofolate reductase): 280 nM

COc1ccc2cc([C@H](C)C(=O)N[C@@H](Cc3c[nH]c4ccccc34)C(=O)N/C(=C\c3ccccc3)C(=O)O)ccc2c1
IC50 [6]: 48900 nM

O=c1[nH]n2c(=O)c3ccccc3nc2/c1=C/c1ccccc1F
IC50 [5]: 47 nM
IC50 [1]: 600 nM

CC(=O)c1nnn(-c2ccc(S(N)(=O)=O)cc2)c1C
Ratio IC50 [3]: 1.95
IC50 [4]: 2610 nM

COc1ccc(-c2cc3cc(-c4c[se]nn4)c(OC(C)=O)cc3o2)cc1
IC50 (Alpha-glucosidase): 1030 nM

COc1ccc(/C=c2\c(=O)[nH]n3c(=O)c4ccccc4nc23)cc1OC
IC50 [5]: 47 nM
IC50 [1]: 600 nM

Cc1c(C2=NNC(c3ccccc3)C2)nnn1-c1ccc(S(N)(=O)=O)cc1 (stereo unspecified)
Ratio IC50 [3]: 1.95
IC50 [4]: 2610 nM

CC(=O)N1N=C(c2nnn(-c3ccc(S(N)(=O)=O)cc3)c2C)CC1c1ccccc1 (stereo unspecified)
Ratio IC50 [3]: 1.95
IC50 [4]: 2610 nM

CC(=O)Oc1cc2oc(-c3ccc(C)cc3)cc2cc1-c1c[se]nn1
IC50 (Alpha-glucosidase): 1030 nM

CS(=O)(=O)c1ccc(C(=O)OCCn2cc(-c3ccc(C(F)(F)F)cc3)nn2)cc1
IC50 [2]: 2 nM
Ratio IC50 [3]: 0.008

O=Cc1cn(-c2ccc(Br)cc2)nc1-c1ccc(Br)cc1
IC50 [2]: 17 nM
Ratio IC50 [3]: 0.008

C/C(=N\NC(=O)c1nnn(-c2ccc(S(N)(=O)=O)cc2)c1C)c1nnn(-c2ccc(S(N)(=O)=O)cc2)c1C
Ratio IC50 [3]: 1.95
IC50 [4]: 2610 nM

CC1=NN(c2ccc(S(N)(=O)=O)cc2)C(=O)/C1=C\c1ccc(F)cc1C
IC50 [7]: 150 nM

CC(=O)Oc1cc2oc(-c3ccc(F)cc3)cc2cc1-c1c[se]nn1
IC50 (Alpha-glucosidase): 1030 nM

C/C=C(\NC(=O)[C@H](Cc1c[nH]c2ccccc12)NC(=O)[C@@H](C)c1ccc2cc(OC)ccc2c1)C(=O)OC
IC50 [6]: 48900 nM

CCC(=O)c1nnn(-c2ccc(S(N)(=O)=O)cc2)c1C
Ratio IC50 [3]: 1.95
IC50 [4]: 2610 nM

CCOc1cc(/C=C2\C(=O)N(c3ccc(S(N)(=O)=O)cc3)N=C2C)ccc1O
IC50 [7]: 150 nM

COc1ccc2cc([C@H](C)C(=O)N[C@@H](CCCCN)C(=O)N/C(=C\c3ccccc3)C(=O)O)ccc2c1
IC50 [6]: 48900 nM

CC1=NN(c2ccc(S(N)(=O)=O)cc2)C(=O)/C1=C\c1cccc(OCc2ccccc2)c1
IC50 [7]: 150 nM

O=c1[nH]n2c(=O)c3ccccc3nc2/c1=C/c1ccccc1
IC50 [5]: 47 nM
IC50 [1]: 600 nM

NS(=O)(=O)c1ccc(-c2nn(-c3ccc([N+](=O)[O-])cc3)cc2C=O)cc1
IC50 [2]: 17 nM
Ratio IC50 [3]: 0.008

CC1=NN(c2ccc(S(N)(=O)=O)cc2)C(=O)/C1=C\c1sccc1C
IC50 [7]: 150 nM

CC(=O)Oc1cc2oc(-c3ccccc3)cc2cc1-c1c[se]nn1
IC50 (Alpha-glucosidase): 1030 nM

COc1ccc2cc([C@H](C)C(=O)N[C@@H](CCSC)C(=O)N/C(=C\c3ccccc3)C(=O)O)ccc2c1
IC50 [6]: 48900 nM

CC(=O)Oc1cc2oc(-c3cccc(Cl)c3)cc2cc1-c1c[se]nn1
IC50 (Alpha-glucosidase): 1030 nM

CC(C)=CC[C@H]1C[C@@H]2C[C@@H]3[C@@H](C[C@]4(C)C(C)(C)OC[C@]34C)C(=O)[C@](C(=O)c3ccccc3)(C1=O)C2(C)C
IC50 [4]: 5270 nM

COc1cc(/C=C2\C(=O)N(c3ccc(S(N)(=O)=O)cc3)N=C2C)ccc1OCC#N
IC50 [7]: 150 nM

CC1=NN(c2ccc(S(N)(=O)=O)cc2)C(=O)/C1=C\c1c[nH]c2ccccc12
IC50 [7]: 150 nM

COc1ccc(/C=c2\c(=O)[nH]n3c(=O)c4ccccc4nc23)cc1
IC50 [5]: 47 nM
IC50 [1]: 600 nM

NS(=O)(=O)c1ccc(C(=O)OCCn2cc(-c3ccc(C(F)(F)F)cc3)nn2)cc1
IC50 [2]: 131 nM
Ratio IC50 [3]: 0.008

Cc1c(C(=O)/C=C/c2ccccc2)nnn1-c1ccc(S(N)(=O)=O)cc1
Ratio IC50 [3]: 1.95
IC50 [4]: 2610 nM

Cc1sc(/C=C2\CN(C)CC3C2=NN(c2ccccc2)C3c2cc(F)c(C)s2)cc1F (stereo unspecified)
inhibition [8]: < 98%

CS(=O)(=O)c1ccc(-n2cc(-c3ccc(C(F)(F)F)cc3)nn2)cc1
IC50 [2]: 226 nM
Ratio IC50 [3]: 0.008

COC(=O)/C(=C/c1ccccc1)NC(=O)[C@H](Cc1ccc(O)cc1)NC(=O)[C@@H](C)c1ccc2cc(OC)ccc2c1
IC50 [6]: 48900 nM

COc1ccc2cc([C@H](C)C(=O)N[C@@H](Cc3ccc(O)cc3)C(=O)N/C(=C\c3ccccc3)C(=O)O)ccc2c1
IC50 [6]: 48900 nM

COC(=O)/C(=C/c1ccccc1)NC(=O)[C@H](CC(=O)O)NC(=O)[C@@H](C)c1ccc2cc(OC)ccc2c1
IC50 [6]: 48900 nM

Cc1c(C(=O)NN)nnn1-c1ccc(S(N)(=O)=O)cc1
Ratio IC50 [3]: 1.95
IC50 [4]: 2920 nM

COc1ccccc1/C=c1\c(=O)[nH]n2c(=O)c3ccccc3nc12
IC50 [5]: 47 nM
IC50 [1]: 600 nM

O=c1[nH]n2c(=O)c3ccccc3nc2/c1=C/c1cccc(F)c1
IC50 [5]: 47 nM
IC50 [1]: 600 nM

CC(=O)Oc1cc2oc(-c3cccc(F)c3)cc2cc1-c1c[se]nn1
IC50 (Alpha-glucosidase): 1030 nM

O=c1[nH]n2c(=O)c3ccccc3nc2/c1=C/c1ccc(F)cc1
IC50 [5]: 47 nM
IC50 [1]: 600 nM

NS(=O)(=O)c1ccc(-n2cc(-c3ccc(C(F)(F)F)cc3)nn2)cc1
IC50 [2]: 3320 nM
Ratio IC50 [3]: 0.008

Source: ChEMBL document CHEMBL5241111, “Non-steroidal anti-inflammatory drugs: recent advances in the use of synthetic COX-2 inhibitors” (RSC Med Chem, 2022)
